Results on eight compounds are retold here after PMC10099813, “Stafiba: A STAT5‐Selective Small‐Molecule Inhibitor” (Chembiochem, 2022).

Series [1] has as its target T1, STAT5a (Homo sapiens, UniProt P42229).
T1 sequence (P42229 1-794): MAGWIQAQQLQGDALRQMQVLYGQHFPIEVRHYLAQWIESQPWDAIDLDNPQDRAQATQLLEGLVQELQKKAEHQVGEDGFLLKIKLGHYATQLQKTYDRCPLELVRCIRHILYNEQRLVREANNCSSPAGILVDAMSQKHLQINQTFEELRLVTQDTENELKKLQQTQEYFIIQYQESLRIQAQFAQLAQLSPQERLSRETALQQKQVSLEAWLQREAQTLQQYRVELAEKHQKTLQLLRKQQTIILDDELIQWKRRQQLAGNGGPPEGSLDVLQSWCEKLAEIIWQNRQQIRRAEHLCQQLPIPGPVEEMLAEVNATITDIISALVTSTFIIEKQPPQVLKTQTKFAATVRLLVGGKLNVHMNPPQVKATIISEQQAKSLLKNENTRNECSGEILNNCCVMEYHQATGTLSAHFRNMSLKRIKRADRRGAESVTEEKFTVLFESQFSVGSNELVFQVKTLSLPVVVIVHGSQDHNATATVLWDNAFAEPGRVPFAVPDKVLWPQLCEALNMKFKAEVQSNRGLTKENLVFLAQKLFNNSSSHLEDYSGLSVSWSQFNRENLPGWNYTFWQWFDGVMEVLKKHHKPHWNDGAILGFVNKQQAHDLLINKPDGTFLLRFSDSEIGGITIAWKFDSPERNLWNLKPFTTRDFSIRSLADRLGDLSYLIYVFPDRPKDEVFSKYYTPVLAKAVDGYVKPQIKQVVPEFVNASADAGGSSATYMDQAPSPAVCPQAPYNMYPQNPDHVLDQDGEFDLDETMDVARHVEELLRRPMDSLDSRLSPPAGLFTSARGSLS
Nature of the series: Competitive fluorescence polarization (FP) binding assay, STAT5a SH2 domain. Conditions: FP assay; for Ki: Ki calculated from IC50 (n=3) via published equation; for Ki / IC50: 2 % DMSO (10 % DMSO for 10); for IC50: n=3 unless stated; for inhibition at 100 µM: the highest concentration tested, read-out: maximum inhibition at 100 µM (STAT5a). The method, then: (§1) Fluorescence polarization assays: Competitive binding assays based on fluorescence polarization were carried out essentially as previously described.[[4a]] Unless stated otherwise, final concentrations of the buffer components were: 10 mM Tris (pH 8.0), 50 mM NaCl, 1 mM EDTA, 1 mM DTT, 0.1 % (v/v) Nonidet P‐40 substitute, and 2 % DMSO. Proteins were used at concentrations which reflect the Kd values of the interactions between the fluoropeptide and the protein preparations. Protein concentrations used for activity analysis of compound 5 were 91 nM for STAT1, 107 nM for STAT3, 28 nM for STAT4, 122 nM for STAT5a, 56 nM for STAT5b and 101 nM for STAT6. Protein concentrations used for activity analysis of AC‐4‐130 were 103 nM for STAT5a and 62 nM for STAT5b. […] Final concentration of all fluorescent‐labelled peptides was 10 nM. The following peptides were used in assays: 5‐carboxyfluorescein‐GpYDKPHVL for STAT1; 5‐carboxyfluorescein‐GpYLPQTV‐NH2 for STAT3; 5‐carboxyfluorescein‐GpYLPQNID for STAT4; 5‐carboxyfluorescein‐GpYLVLDKW for STAT5a/5b, and 5‐carboxyfluorescein‐GpYVPWQDLI for STAT6. Protein and test compounds were incubated for 1 h prior to addition of the fluorescein‐labeled peptide. Fluorescence polarization was measured after another 60 min using an Infinite F500 plate reader (Tecan). IC50 values were converted to Ki‐values using the published equation.[13]

The nature of series [2]: Solubility as observed during synthesis / stock preparation. In kind it is physicochemical. The settings on record: remark on synthesis.
Series [3] deals with T2, STAT5b (Homo sapiens, UniProt P51692).
T2 sequence (P51692 1-787): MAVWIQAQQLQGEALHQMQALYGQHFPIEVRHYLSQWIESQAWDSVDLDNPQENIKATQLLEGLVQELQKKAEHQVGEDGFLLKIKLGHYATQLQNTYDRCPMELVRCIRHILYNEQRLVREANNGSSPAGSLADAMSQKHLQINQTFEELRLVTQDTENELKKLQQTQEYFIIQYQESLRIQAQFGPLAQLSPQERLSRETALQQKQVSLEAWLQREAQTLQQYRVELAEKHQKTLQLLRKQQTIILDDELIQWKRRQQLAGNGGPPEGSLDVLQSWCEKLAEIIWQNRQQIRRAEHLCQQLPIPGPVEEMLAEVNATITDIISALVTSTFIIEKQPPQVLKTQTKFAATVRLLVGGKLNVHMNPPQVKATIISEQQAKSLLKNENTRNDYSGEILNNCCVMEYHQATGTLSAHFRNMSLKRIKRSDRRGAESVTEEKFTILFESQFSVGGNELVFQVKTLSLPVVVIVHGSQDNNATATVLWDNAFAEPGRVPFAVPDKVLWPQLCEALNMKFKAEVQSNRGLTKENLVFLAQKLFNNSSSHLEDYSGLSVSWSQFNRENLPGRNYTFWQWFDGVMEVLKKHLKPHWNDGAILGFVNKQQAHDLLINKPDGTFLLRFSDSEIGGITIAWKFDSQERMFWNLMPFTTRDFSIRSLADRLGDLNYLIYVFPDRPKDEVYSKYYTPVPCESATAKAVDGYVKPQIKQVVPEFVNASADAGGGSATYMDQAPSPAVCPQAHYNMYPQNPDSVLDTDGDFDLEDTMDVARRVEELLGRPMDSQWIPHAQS
Kind of series: Competitive fluorescence polarization (FP) binding assay, STAT5b SH2 domain. Conditions: FP assay; for Ki: Ki calculated from IC50 (n=3) via published equation; for Ki / IC50: 2 % DMSO (10 % DMSO for 10); for IC50: n=3. The method, then:
as §1

With `O=C(COc1ccc(C(=O)Nc2ccc(Oc3ccccc3)cc2)cc1)NCc1cc(OP(=O)(O)O)cc(OP(=O)(O)O)c1` [compound 4], the values for the Ki in series [1] and in series [3] were 2.5 ± 0.5 µM and 0.9 ± 0.1 µM, respectively. Moreover, the IC50 (commonly the midpoint of a concentration-inhibition curve) in series [1] came to 5.2 ± 1 µM; in series [3], 1.9 ± 0.3 µM. In series [1] (ratio of Ki values), the “increase of activity against STAT5a relative to resorcinol bisphosphate (1)” value is given as 9 fold. The “solubility of the final product” value in series [2] was “limited solubility”. In addition, in series [3] (ratio of Ki values), the “increase of activity against STAT5b relative to resorcinol bisphosphate (1)” value came to 23 fold.

In the case of `CC(=O)NCc1ccc(OP(=O)(O)O)cc1OP(=O)(O)O` [compound 2], the inhibition (usually the relative decrease from the control value, in per cent) at 100 µM in series [1] came to 50 ± 3%. Further, in series [3], the Ki – broadly, a dissociation constant, usually derived from enzyme kinetics or from competition with a known ligand – was 42.1 ± 1.6 µM and the IC50 turned out to be 85.7 ± 3.2 µM.

With `O=P(O)(O)Oc1cccc(OP(=O)(O)O)c1F` [compound 7], the values for the Ki in series [1] and in series [3] were 10.8 ± 0.5 µM and 7.6 ± 0.4 µM, respectively. Moreover, the IC50 in series [1] worked out at 21.8 ± 0.9 µM; in series [3] it was 15.5 ± 0.8 µM.

Take `O=P(O)(O)Oc1ccc(F)c(OP(=O)(O)O)c1` [compound 6]: in series [1], the Ki is 29.4 ± 0.6 µM and the IC50 came out at 59.4 ± 1.2 µM. Further, in series [3], the Ki was 27.4 ± 2.8 µM and the IC50 was found to be 55.8 ± 5.6 µM.

On to `O=P(O)(O)Cc1cccc(CP(=O)(O)O)c1F` [compound 8], for which the inhibition at 100 µM in series [1] was 12 ± 3%; in series [3] (100 µM, read-out: maximum inhibition at 100 µM (STAT5b)), 14 ± 1%.

With `O=P(O)(O)C(F)(F)c1cccc(C(F)(F)P(=O)(O)O)c1F` [compound 9], in series [1], the Ki was 15 ± 0.6 µM and the IC50 was 30.7 ± 1.3 µM. In addition, in series [3], the Ki is 18.9 ± 1.5 µM and the IC50 stood at 38.4 ± 3 µM.

`CC(=O)NCc1cc(OP(=O)(O)O)cc(OP(=O)(O)O)c1` [compound 3]: in series [1], the Ki is 36.4 ± 3.8 µM and the IC50 turned out to be 73.8 ± 7.7 µM. For the same compound, in series [3], the Ki is 18.7 ± 0.8 µM and the IC50 was 38.1 ± 1.6 µM.

Regarding `O=P(O)(O)Oc1cccc(OP(=O)(O)O)c1` [compound 1, 1,3-Phenylene bis(dihydrogen phosphate)], the Ki in series [1] is 23.3 ± 4.9 µM; in series [3] it was 20.4 ± 0.7 µM. Further, the IC50 was found to be 47.2 ± 9.9 µM in series [1] and 41.6 ± 1.4 µM in series [3].
